Article PMC10671074, “Tumor Regression upon Intratumoral and Subcutaneous Dosing of the STING Agonist ALG-031048 in Mouse Efficacy Models” (International Journal of Molecular Sciences, 2023)
Like-named read-outs stand apart in the source and are kept apart here.

Key:
[1] = system: CT26 tumors; test: Re-challenge with CT26 of mice with complete tumor regression; format: in vivo, mouse
Protocol: Ten naïve, age-matched female BALB/c mice were used as controls. […] Tumor growth was measured as described above.

[2] = system: subcutaneous CT26 tumors; test: CT26 mouse colon carcinoma model
Protocol: Each mouse was inoculated subcutaneously in the right flank with 3 × 10^5 CT26 cells (in 0.1 mL PBS) for tumor development.
PBS was used as the vehicle control. […] Vehicles and test compounds were administered IT q3d × 3 in a volume of 0.05 mL. SC administration was performed between the shoulder blades at a dosing volume of 10 mL/kg. Tumors were measured twice a week in two dimensions using calipers, and volume was calculated using Formula (1):Tumor Volume (mm^3) = 0.5 (w^2 × l)(1)
Here, w = width and l = length, in mm, of a tumor.
Tumor weight was estimated with the assumption that 1 mg is equivalent to 1 mm^3 of tumor volume.
Animals were euthanized when (1) their tumor reached the endpoint volume of 2000 mm^3, (2) their body weight loss exceeded 30%, or (3) on the last day of the study, whichever came first. The TTE for analysis was calculated for each mouse by the following Equation (2):TTE = (log10 (endpoint volume) − b)/m(2)
TTE is expressed in days, endpoint volume is expressed in mm^3, b is the intercept, and m is the slope of the line obtained via linear regression of a log-transformed tumor growth data set. […] Animals were weighed on Days 1–5, then twice weekly for the duration of the study.

[3] = Plasma stability, human; format: in vitro ADME; settings: 37 °C, read-out: Plasma t½, Human
Protocol: The plasma stability assay was carried out on 96-well microtiter plates. The test compounds at 5 µM and the reference compound (propantheline) at 1 µM final concentration were incubated separately at 37 °C with mouse or human plasma for 0, 30, 60, and 240 min. At the end of each incubation time point, 300 μL of the quenching solution (50% acetonitrile, 50% methanol, and 0.05% formic acid) containing the internal standard was added to each well. The incubation plates were sealed, vortexed, and centrifuged at 4 °C for 15 min at 4000 rpm. The supernatant was transferred to fresh plates for LC/MS/MS analysis of the test compounds. The peak area ratios of each test compound over the internal standard were plotted against incubation time, and the t½ was calculated from the curve assuming first-order kinetics.

[4] = system: primary human immature dendritic cells; test: Activation of primary human immature dendritic cells (CD83/CD86 flow cytometry); format: cell-based; settings: for EC50: Homo sapiens, Dendritic cell, iDCs, 72 h after stimulation
Excerpt: Frozen human PBMCs (100 × 10^6 cells) were obtained from Stem Cell Technologies (Kent, WA, USA). Monocytes were purified from PBMCs using a CD14^+ pan-monocyte-negative isolation kit and an LS column (Miltenyi Biotec, Bergisch Gladbach, Germany). Magnetically labeled non-target cells were depleted by retaining them within a MACS column in the magnetic field of a MACS Separator, while highly purified unlabeled CD1 D16^− cells were collected and used to generate dendritic cells. To obtain immature monocyte-derived dendritic cells (iMDDCs), enriched monocytes were cultured in Mo-DC differentiation medium (Miltenyi Biotec) supplemented with human IL-4 (250 IU/mL, Miltenyi Biotec) and human GM-CSF (800 IU/mL, Miltenyi Biotec) at 37 °C in a T-150 flask in a 5% CO2 humidified incubator for 5 days; fresh media was replenished every 2–3 days.
[…] An aliquot of iMDDCs was also cultured in maturation media for 24–48 h and used as a control containing RPMI 1640, 10% FBS, 2 mM L-glutamine, and human TNF-α (6000 IU/mL, Miltenyi Biotec). The supernatant from the plate was frozen to assess cytokine production, and cells were analyzed via flow cytometry.
Cells were incubated with phosphate-buffered saline (PBS) containing 2% FBS and 2 mM of EDTA (FACS buffer) supplemented with 2 mg/mL of normal human IgG on ice for 15 min to block Fc receptors. The cell suspension was then incubated with a predetermined optimal concentration of the appropriate fluorescent dye-labeled monoclonal antibodies (mAbs) against human cell surface markers on ice for 30 min. The fluorescent dye-labeled mAbs against human cell surface molecules included anti-CD209, anti-CD14, anti-CD11c, anti-CD40, anti-HLA-DR, anti-CD86, and anti-CD83 (BD Biosciences, Franklin Lakes, NJ, USA or BioLegend, San Diego, CA, USA). In addition, a fixable live/dead stain (Thermo Fisher Scientific) at a dilution of 1:1000 was added to exclude dead cells. After several washes with FACS buffer, cells were resuspended in FACS buffer and analyzed on an Attune Nxt flow cytometer (Thermo Fisher Scientific) with FlowJo v10 software (BD Biosciences). An aliquot of the cells to be analyzed served as controls by using “fluorescent minus-one” to establish gates and determine the frequency of positively stained cells. Ultra-comp beads (Thermo Fisher Scientific) were used as single-stained controls to set up compensation on the flow cytometer.

[5] = Liver microsomal stability, human; format: in vitro ADME; settings: pH 7.4, 0.5 mg/mL human liver microsomes, 37 °C, read-out: Liver Microsome t½, Human
Protocol: The liver microsomal stability assay was carried out in 96-well microtiter plates. The test compounds at 5 µM and the reference compound (verapamil) at 1 µM final concentration were incubated separately at 37 °C with 0.5 mg/mL liver microsomes, with or without 1 mM NADPH in 100 mM potassium phosphate buffer, pH 7.4 with 3.3 mM MgCl2. […] At each of the time points (0, 15, 30, and 60 min), the enzymatic reaction was terminated with the addition of 150 μL of quenching solution (100% acetonitrile, 0.1% formic acid, and the internal standard), and subsequently the mixtures were vortexed vigorously for 20 min and centrifuged at 4000 rpm at 10 °C. The supernatants (80 µL) were transferred to a clean 96-well plate and analyzed via LC/MS/MS. The peak area ratios of each test compound over the internal standard were plotted against incubation time, and the t½ was calculated from the curve assuming first-order kinetics.

[6] = system: primary human monocytes; test: Activation of primary human monocytes (CD83/CD86 flow cytometry); format: cell-based; settings: Monocyte, 24 h after stimulation
Excerpt: Frozen human PBMCs (100 × 10^6 cells) were obtained from Stem Cell Technologies (Kent, WA, USA). Monocytes were purified from PBMCs using a CD14^+ pan-monocyte-negative isolation kit and an LS column (Miltenyi Biotec, Bergisch Gladbach, Germany). Magnetically labeled non-target cells were depleted by retaining them within a MACS column in the magnetic field of a MACS Separator, while highly purified unlabeled CD1 D16^− cells were collected and used to generate dendritic cells.
The cell suspension was then incubated with a predetermined optimal concentration of the appropriate fluorescent dye-labeled monoclonal antibodies (mAbs) against human cell surface markers on ice for 30 min. The fluorescent dye-labeled mAbs against human cell surface molecules included anti-CD209, anti-CD14, anti-CD11c, anti-CD40, anti-HLA-DR, anti-CD86, and anti-CD83 (BD Biosciences, Franklin Lakes, NJ, USA or BioLegend, San Diego, CA, USA). In addition, a fixable live/dead stain (Thermo Fisher Scientific) at a dilution of 1:1000 was added to exclude dead cells. After several washes with FACS buffer, cells were resuspended in FACS buffer and analyzed on an Attune Nxt flow cytometer (Thermo Fisher Scientific) with FlowJo v10 software (BD Biosciences). An aliquot of the cells to be analyzed served as controls by using “fluorescent minus-one” to establish gates and determine the frequency of positively stained cells. Ultra-comp beads (Thermo Fisher Scientific) were used as single-stained controls to set up compensation on the flow cytometer.

[7] = system: HEK 293 cells lacking functional STING; test: HEK 293 STING Dual Null IRF reporter assay
Protocol: Assays were set up after allowing cells to adhere for 48 h. Compounds dissolved in water were serially diluted in dosing buffer containing 10 µg/mL of digitonin (MP Biomedicals, Solon, OH, USA). Media were aspirated from the cells, and 50 µL of buffer with compound was added in triplicate. […] The next day, 20 µL of media was transferred to two new plates, and either 50 µL of QuantiLuc™ (Invivogen) to measure IFN-β expression or 80 µL of QuantiBlue™ (Invivogen) to measure IRF activity were added. […] An aliquot of 100 µL of CellTiter-Glo® (Promega, Madison, WI, USA) was added to the original plate still containing the cells, and luminescence was determined to measure viability. All readouts were measured on an Envision plate reader from Perkin Elmer. Data were analyzed using GraphPad™ Prism’s version 8.0 [Agonist] vs. response—variable slope (four parameters) model.
with increasing concentrations of the STING agonists or IFN‐β. After 24 hours, IRF reporter activity

SMILES: CO[C@H]1[C@H]2OP(=O)(O)OC[C@@]34C[C@@H]3[C@@H](n3cnc5c(N)ncnc53)[C@H](O)[C@@H]4O[P@](=O)(S)OC[C@H]1O[C@H]2n1cnc2c(=O)[nH]c(N)nc21 [ALG-031048]
- Animals with complete tumor suppression (TV < 10 mm^3) after CT26 re-challenge ([1]; Figure 5C, previously 100 μg IT × 3, CT26 left flank, 25 days, no further treatment): six
- TV at last measurement of animals with delayed tumor growth after CT26 re-challenge ([1]; Figure 5C, three animals): 40–221 mm^3
- TV at end of study of remaining re-challenged animal ([1]; complete responders to 100 μg IT 3 × q3d, CT26 re-challenge): 864 mm^3
- Animals with tumor growth suppressed after CT26 re-challenge ([1]; complete responders to 100 μg IT 3 × q3d, re-challenged on opposite flank, 40 days without additional treatment): 8 of 9
- Animals with complete response (TV < 10 mm^3) at end of study ([2]; CT26, 4 mg/kg SC, 3 × q3d): one
- Animals with tumors regressed and undetectable at end of study ([2]; Table 2 study, 100 μg IT, three doses): 9 of 10
- half-life at 5 µM [3]: > 1 h
- EC50 ([4]; read-out: EC50 CD83, Immature Dendritic Cells): 5.3 µM
- EC50 ([4]; read-out: EC50 CD86, Immature Dendritic Cells): 17.8 µM
- Surface expression of CD86 and CD83 (in words) ([4]; iDCs and, to a lesser degree, monocytes, 24 and 72 h): upregulated the surface expression of CD86 and CD83
- half-life at 5 µM [5]: > 8 h
- EC50 ([6]; read-out: EC50 CD83, Monocytes): 8.1 µM
- EC50 ([6]; read-out: EC50 CD86, Monocytes): 1.12 µM
- STING dependence of cellular activation (IRF reporter) ([7]; HEK 293 R232 cells vs control cells lacking STING expression, 24 hours): dependent on the expression of STING
- EC50 ([7]; Homo sapiens, HEK293, read-out: Reporter Cell Assay EC50, STING Dual Null IRF): > 100 µM
